In brackets after ≈: the same amount, converted by molar mass.
Tests used:
Assay type in all cases: functional
[1] = tested on: Acinetobacter calcoaceticus; test: Concentration required to inhibit Acinetobacter calcoaceticus CMX669 stain by standard agar dilution method.
Enterococcus faecium = test: Concentration required to inhibit Enterococcus faecium ATCC 8043 stain by standard agar dilution method.
Klebsiella aerogenes = test: Concentration required to inhibit Enterobacter aerogenes ATCC 13048 stain by standard agar dilution method.
Escherichia coli [2] = test: Concentration required to inhibit Escherichia coli DC-2 stain by standard agar dilution method.
Escherichia coli [3] = test: Concentration required to inhibit Escherichia coli H 560 stain by standard agar dilution method.
Escherichia coli [4] = test: Concentration required to inhibit Escherichia coli JUHL stain by standard agar dilution method.
Escherichia coli [5] = test: Concentration required to inhibit Escherichia coli KNK 437 stain by standard agar dilution method.
Escherichia coli [6] = test: Concentration required to inhibit Escherichia coli SS stain by standard agar dilution method.
Klebsiella pneumoniae = test: Concentration required to inhibit Klebsiella pneumoniae ATCC 8045 stain by standard agar dilution method.
Micrococcus luteus [7] = test: Concentration required to inhibit Micrococcus luteus ATCC 4698 stain by standard agar dilution method.
Micrococcus luteus [8] = test: Concentration required to inhibit Micrococcus luteus ATCC 9341 stain by standard agar dilution method.
Burkholderia cepacia = test: Concentration required to inhibit Pseudomonas cepacia 2961 stain by standard agar dilution method.
Pseudomonas aeruginosa [9] = test: Concentration required to inhibit Pseudomonas aeruginosa K799/61 stain by standard agar dilution method.
Pseudomonas aeruginosa [10] = test: Concentration required to inhibit Pseudomonas aeruginosa K799/WT stain by standard agar dilution method.
[11] = tested on: Staphylococcus epidermidis; test: Concentration required to inhibit Staphylococcus epidermis 3519 stain by standard agar dilution method.
Staphylococcus aureus [12] = test: Concentration required to inhibit 45 stain Staphylococcus aureus 45 by standard agar dilution method.
Staphylococcus aureus [13] = test: Concentration required to inhibit CMX553 Staphylococcus aureus CMX553 stain by standard agar dilution method
Staphylococcus aureus [14] = test: Concentration required to inhibit Staphylococcus aureus ATCC 6538P stain by standard agar dilution method
Streptococcus agalactiae = test: Concentration required to inhibit Streptococcus agalactiae CMX508 stain by standard agar dilution method.
Streptococcus equinus = test: Concentration required to inhibit Streptococcus bovis A5169 stain by standard agar dilution method.
Streptococcus pyogenes [15] = test: Concentration required to inhibit Streptococcus pyogenes 930CONST stain by standard agar dilution method.
Streptococcus pyogenes [16] = test: Concentration required to inhibit Streptococcus pyogenes EES61 stain by standard agar dilution method.
Streptococcus pyogenes [17] = test: Concentration required to inhibit Streptococcus pyogenes 2548 INDUC stain by standard agar dilution method.

MIC [1]	MIC (Enterococcus faecium)	MIC (Klebsiella aerogenes)	MIC (Escherichia coli [2])	MIC (Escherichia coli [3])	MIC (Escherichia coli [4])	MIC (Escherichia coli [5])	MIC (Escherichia coli [6])	MIC (Klebsiella pneumoniae)	MIC (Micrococcus luteus [7])	MIC (Micrococcus luteus [8])	MIC (Burkholderia cepacia)	MIC (Pseudomonas aeruginosa [9])	MIC (Pseudomonas aeruginosa [10])	MIC [11]	MIC (Staphylococcus aureus [12])	MIC (Staphylococcus aureus [13])	MIC (Staphylococcus aureus [14])	MIC (Streptococcus agalactiae)	MIC (Streptococcus equinus)	SMILES	other results
12.5 µg/mL (≈ 16.4 µM)	0.02 µg/mL (≈ 0.0263 µM)	> 100 µg/mL	50 µg/mL (≈ 65.7 µM)	25 µg/mL (≈ 32.9 µM)	100 µg/mL (≈ 131 µM)	100 µg/mL (≈ 131 µM)	0.39 µg/mL (≈ 0.512 µM)	100 µg/mL (≈ 131 µM)	0.1 µg/mL (≈ 0.131 µM)	0.1 µg/mL (≈ 0.131 µM)	> 100 µg/mL	12.5 µg/mL (≈ 16.4 µM)	> 100 µg/mL	0.39 µg/mL (≈ 0.512 µM)	0.78 µg/mL (≈ 1.02 µM)	0.78 µg/mL (≈ 1.02 µM)	0.78 µg/mL (≈ 1.02 µM)	0.05 µg/mL (≈ 0.0657 µM)	0.02 µg/mL (≈ 0.0263 µM)	CC[C@H]1OC(=O)[C@H](C)[C@@H](O[C@H]2C[C@@](C)(OC)[C@@H](O)[C@H](C)O2)[C@H](C)[C@@H](O[C@H]2O[C@H](C)C[C@H](N(C)C)[C@H]2O)[C@@](C)(O)C[C@@H](C)[C@@H](N(C)C)[C@H](C)[C@@H](O)[C@@]12CO2	MIC (Streptococcus pyogenes [15]): > 100 µg/mL; MIC (Streptococcus pyogenes [16]): 0.05 µg/mL (≈ 0.0657 µM); MIC (Streptococcus pyogenes [17]): 6.2 µg/mL (≈ 8.15 µM)
3.1 µg/mL (≈ 4.06 µM)	1.56 µg/mL (≈ 2.04 µM)	100 µg/mL (≈ 131 µM)	50 µg/mL (≈ 65.5 µM)	25 µg/mL (≈ 32.8 µM)	> 100 µg/mL	100 µg/mL (≈ 131 µM)	0.39 µg/mL (≈ 0.511 µM)	50 µg/mL (≈ 65.5 µM)	0.78 µg/mL (≈ 1.02 µM)	0.78 µg/mL (≈ 1.02 µM)	100 µg/mL (≈ 131 µM)	1.56 µg/mL (≈ 2.04 µM)	50 µg/mL (≈ 65.5 µM)	6.2 µg/mL (≈ 8.13 µM)	6.2 µg/mL (≈ 8.13 µM)	6.2 µg/mL (≈ 8.13 µM)	6.2 µg/mL (≈ 8.13 µM)	0.78 µg/mL (≈ 1.02 µM)	0.78 µg/mL (≈ 1.02 µM)	CC[C@H]1OC(=O)[C@H](C)[C@@H](O[C@H]2C[C@@](C)(OC)[C@@H](O)[C@H](C)O2)[C@H](C)[C@@H](O[C@@H]2O[C@H](C)C[C@H](N(C)C)[C@H]2O)[C@@](C)(O)C[C@@H](C)[C@@H](N(C)C)[C@H](C)[C@@H](O)[C@H]1CO	MIC (Streptococcus pyogenes [15]): > 100 µg/mL; MIC (Streptococcus pyogenes [16]): 0.39 µg/mL (≈ 0.511 µM); MIC (Streptococcus pyogenes [17]): 50 µg/mL (≈ 65.5 µM)
> 100 µg/mL	12.5 µg/mL (≈ 16 µM)	> 100 µg/mL	50 µg/mL (≈ 64.2 µM)	25 µg/mL (≈ 32.1 µM)	> 100 µg/mL	> 100 µg/mL	1.56 µg/mL (≈ 2 µM)	> 100 µg/mL	3.1 µg/mL (≈ 3.98 µM)	6.2 µg/mL (≈ 7.96 µM)	> 100 µg/mL	50 µg/mL (≈ 64.2 µM)	> 100 µg/mL	25 µg/mL (≈ 32.1 µM)	25 µg/mL (≈ 32.1 µM)	25 µg/mL (≈ 32.1 µM)	25 µg/mL (≈ 32.1 µM)	3.1 µg/mL (≈ 3.98 µM)	3.1 µg/mL (≈ 3.98 µM)	CC[C@H]1OC(=O)[C@H](C)[C@@H](O[C@H]2C[C@@](C)(OC)[C@@H](O)[C@H](C)O2)[C@H](C)[C@@H](O[C@@H]2O[C@H](C)C[C@H](N(C)C)[C@H]2O)[C@@](C)(O)C[C@@H](C)[C@@H](N(C)C)[C@H](C)[C@@H](O)[C@@]1(O)CO	MIC (Streptococcus pyogenes [15]): > 100 µg/mL; MIC (Streptococcus pyogenes [16]): 1.56 µg/mL (≈ 2 µM); MIC (Streptococcus pyogenes [17]): 100 µg/mL (≈ 128 µM)
12.5 µg/mL (≈ 16.4 µM)	0.2 µg/mL (≈ 0.262 µM)	50 µg/mL (≈ 65.5 µM)	25 µg/mL (≈ 32.8 µM)	12.5 µg/mL (≈ 16.4 µM)	50 µg/mL (≈ 65.5 µM)	50 µg/mL (≈ 65.5 µM)	0.1 µg/mL (≈ 0.131 µM)	25 µg/mL (≈ 32.8 µM)	0.1 µg/mL (≈ 0.131 µM)	0.1 µg/mL (≈ 0.131 µM)	> 100 µg/mL	12.5 µg/mL (≈ 16.4 µM)	> 100 µg/mL	0.39 µg/mL (≈ 0.511 µM)	0.78 µg/mL (≈ 1.02 µM)	0.78 µg/mL (≈ 1.02 µM)	0.39 µg/mL (≈ 0.511 µM)	0.1 µg/mL (≈ 0.131 µM)	0.1 µg/mL (≈ 0.131 µM)	CC[C@H]1OC(=O)[C@H](C)[C@@H](O[C@H]2C[C@@](C)(OC)[C@@H](O)[C@H](C)O2)[C@H](C)[C@@H](O[C@@H]2O[C@H](C)C[C@H](N(C)C)[C@H]2O)[C@@](C)(O)C[C@@H](C)[C@@H](N(C)C)[C@H](C)[C@@H](O)[C@]1(C)O	MIC (Streptococcus pyogenes [15]): > 100 µg/mL; MIC (Streptococcus pyogenes [16]): 0.05 µg/mL (≈ 0.0655 µM); MIC (Streptococcus pyogenes [17]): 100 µg/mL (≈ 131 µM)

Reference: ChEMBL document CHEMBL1125223, “Synthesis and antibacterial activities of C-21 functionalized derivatives of (9R)-9-amino-9-deoxoerythromycins A and B” (1991)
